Reference: patent US20080132564A1, “MICELLAR DRUG DELIVERY VEHICLES AND PRECURSORS THERETO AND USES THEREOF” (ANGIOTECH INTERNATIONAL AG, priority 2001, published 2008)

Columns and labels:
[1] = Solubility of paclitaxel in organic solvents
[2] = Recovery of paclitaxel added to polymer mixtures after heating (reverse phase HPLC, UV detection); format: physicochemical
Protocol: The desirability of removing unreacted starting materials and/or acidic reaction by-products can be seen by reference to the data in Table 1. […] According to the data, when paclitaxel is combined with a diblock copolymer having up to 2% residual monomer and up to 0.2 μmol/mg acid content (expressed as the number of protons titrated in a solution prepared by dissolving 1 mg of diblock copolymer in water), after heating, only 95% of the paclitaxel initially added to the mixture could be recovered, as quantified using a reverse phase HPLC assay with UV detection and a taxane optimized C18 column.

## CC(=O)O[C@H]1C(=O)[C@@]2(C)[C@H]([C@H](OC(=O)c3ccccc3)[C@]3(O)C[C@H](OC(=O)[C@H](O)[C@@H](NC(=O)c4ccccc4)c4ccccc4)C(C)=C1C3(C)C)[C@]1(OC(C)=O)CO[C@@H]1C[C@@H]2O [paclitaxel]
[1]; in 1 mL of NMP
  amount of paclitaxel that may be dissolved in NMP: 535 mg
[1]; in ethanol (volume not given)
  amount of paclitaxel that may be dissolved in ethanol: 26 mg
[2]; combined with diblock copolymer having up to 2% residual monomer and up to 0.2 μmol/mg acid content
  paclitaxel initially added that could be recovered after heating: 95%
[2]; combined with methoxypolyethylene glycol having no measured acidic components and no DL-lactide monomer
  paclitaxel recovered after heating: 99%
[2]; diblock copolymer with greatly reduced quantities of residual monomer and acidic components
  paclitaxel that could be recovered after heating: 98%
